Target: T1, 11β-HSD1 (Homo sapiens, UniProt P28845)
T1 construct: Human liver microsomes were used as a source of 11β-HSD1 enzyme; tissue XenoTech Lot No. 1410013; host or cells: pooled human liver microsomes, mixed gender
Experiment: Inhibition of 11β-HSD1 (cortisone to cortisol, human liver microsomes, cortisol ELISA)
Assay type: biochemical
Details: 10 µM, 2.5 h, 37 °C
Procedure: The resulting solution with a final volume of 100 µL was incubated for 2.5 h at 37 °C. To stop the reaction, 10 µL of a 100 µM solution of 18β-glycyrrhetinic acid in PBS was added. The level of cortisol obtained in the reaction was measured by commercially available ELISA kit.
As a control, analogous tests without the addition of inhibitors were used. Half the inhibitory concentration (causing 50% reduction of cortisol or cortisone) was read from the chart.

T1 sequence (P28845 whole entry): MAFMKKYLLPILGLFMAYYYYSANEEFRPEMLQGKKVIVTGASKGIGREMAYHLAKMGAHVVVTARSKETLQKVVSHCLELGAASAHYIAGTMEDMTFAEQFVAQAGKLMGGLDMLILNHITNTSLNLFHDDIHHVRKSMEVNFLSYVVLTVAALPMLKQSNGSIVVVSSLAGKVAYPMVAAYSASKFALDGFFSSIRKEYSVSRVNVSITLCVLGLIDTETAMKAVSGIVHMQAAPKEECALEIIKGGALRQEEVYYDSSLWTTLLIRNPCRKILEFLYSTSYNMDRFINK

**Q.** `CC1(C)[C@@H](OC(=O)CCC(=O)O)CC[C@]2(C)[C@H]3C(=O)C=C4[C@@H]5C[C@@](C)(C(=O)O)CC[C@]5(C)CC[C@@]4(C)[C@]3(C)CC[C@@H]12` [carbenoxolone, reference compound] was tested. Which inhibition at 10 µM did it give?
**A.** Its inhibition at 10 µM is 90.4 ± 1.86%.

From article PMC10139140, “Synthesis of Novel 2-(Cyclopentylamino)thiazol-4(5H)-one Derivatives with Potential Anticancer, Antioxidant, and 11β-HSD Inhibitory Activities” (International Journal of Molecular Sciences, 2023)
